Results taken from PubChem BioAssay (NCI).
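Compound exposure: 48 hours, 5 concentrations, 96-well plates. TGI: total growth inhibition.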 Where a SMILES comes first, the peptide text is derived from it. [ ]: non-standard residue; d: D form. The star is where a group is joined. Phe(4-NO2) = N[CH](Cc1ccc([N+](=O)[O-])cc1)C(=O)O; Boc = CC(C)(C)OC(=O)*; OBn = c1ccc(CO*)cc1

What was measured:
Assay in all cases: NCI-60 cell line screen, 48 h
[1] = system: NCI/ADR-RES ovarian
[2] = system: HOP-62 NSCLC
[3] = system: DU-145 prostate
[4] = system: PC-3 prostate
[5] = system: SF-539 CNS
[6] = system: LOX IMVI melanoma
[7] = system: SK-MEL-2 melanoma
[8] = system: MDA-N
[9] = system: 786-0 renal
[10] = system: SF-295 CNS
[11] = system: A549 NSCLC

SMILES	TGI [1]	TGI [2]	TGI [3]	TGI [4]	TGI [5]	TGI [6]	TGI [7]	TGI [8]	TGI [9]	TGI [10]	TGI [11]
Cc1ccc(C(=O)OC[C@H]2CC[C@@H](n3cc(N(C)C4CCCCC4)c(=O)[nH]c3=O)O2)cc1	56.7 µM	41.7 µM	> 100 µM	> 100 µM	53 µM	38.2 µM	> 100 µM	90.7 µM	> 100 µM	43.1 µM	> 100 µM
COc1cccc(N2C(=O)C3c4[nH]c5ccccc5c4C4c5ccccc5CCC4C3C2=O)c1 (centres undefined)	> 10 µM	6.81 µM	> 10 µM	> 10 µM	6.11 µM	> 10 µM	> 10 µM	> 10 µM	> 8.35 µM	> 10 µM	> 10 µM
N=C(N)SCCON1C(=O)c2ccccc2C1=O	> 100 µM	> 100 µM	> 100 µM	> 100 µM	> 100 µM	> 100 µM	> 100 µM	> 100 µM	> 100 µM	> 100 µM	> 100 µM
Cc1c(-c2c(C)c3ccccc3n2S(=O)(=O)c2ccccc2)n(S(=O)(=O)c2ccccc2)c2ccccc12	> 100 µM	> 87.3 µM	> 33.5 µM	> 100 µM	> 100 µM	> 100 µM	> 100 µM	> 100 µM	42.9 µM	> 100 µM	> 100 µM
Cc1cnoc1NC1=CC(=O)C(=O)c2ccccc21	70.9 µM	> 100 µM	61.2 µM	> 100 µM	58.2 µM	> 100 µM	10.5 µM	3.01 µM	> 100 µM	> 100 µM	63.8 µM
CCN1CC(C)Cn2c(=O)[nH]c3cc(Br)cc1c32 (centres undefined)	> 100 µM	> 100 µM	> 100 µM	> 100 µM	> 100 µM	> 100 µM	> 100 µM	51.8 µM	> 100 µM	> 100 µM	> 100 µM
COc1cc2c(cc1C[N+](C)(C)CSc1ccccc1)-c1ccccc1CC2	> 100 µM	27.1 µM	21.2 µM	11 µM	20.6 µM	14.6 µM	5.21 µM	5.48 µM	19.6 µM	25.5 µM	45.8 µM
c1ccc(CNc2c3c(nc4ccccc24)CCC3)cc1	44.2 µM	25.6 µM	62.5 µM	33.3 µM	36.7 µM	28.4 µM	27.2 µM	30.4 µM	28.5 µM	22 µM	38.9 µM
O=C(Nc1ccccc1)O/N=C(/CBr)c1ccccc1	> 100 µM	68.7 µM	38.1 µM	30.3 µM	29.5 µM	16.3 µM	30.9 µM	24.2 µM	26.6 µM	70.1 µM	> 100 µM
OC(C1CCC=NN1C(O)(C(F)(F)F)C(F)(F)F)(C(F)(F)F)C(F)(F)F (centres undefined)	> 10 µM	> 10 µM	> 10 µM	> 10 µM	> 10 µM	> 10 µM	> 10 µM	> 10 µM	> 10 µM	> 10 µM	> 10 µM
Cc1c(C)c(C)c(-n2[nH]c(=O)n(C)c2=O)c(C)c1C	> 100 µM	> 100 µM	> 100 µM	> 100 µM	> 100 µM	> 100 µM	> 100 µM	> 100 µM	> 100 µM	> 100 µM	> 100 µM
COC(=O)CCC(NC(=O)OC(C)(C)C)C(=O)NC(Cc1ccc([N+](=O)[O-])cc1)C(=O)NCC(=O)OCc1ccccc1 (centres undefined) (Boc-Glu(OMe)-[Phe(4-NO2)]-Gly-OBn; configuration not given here)	> 100 µM	> 77.6 µM	> 100 µM	> 100 µM	63.6 µM	> 86.3 µM	> 100 µM	> 100 µM	> 100 µM	> 74.1 µM	> 100 µM
CC(C)(C)OC(=O)n1cc(C2CNC(=O)C23CCC(=O)N3Cc2ccccc2)c2ccccc21 (centres undefined)	> 100 µM	57.2 µM	55.4 µM	79.3 µM	38.4 µM	44 µM	33.4 µM	85.5 µM	44.8 µM	35.3 µM	40.4 µM
O=[N+]([O-])c1cccc(-c2csc(N=Nc3c(O)[nH]c4ccccc34)n2)c1	29.6 µM	59.6 µM	65.9 µM	99.4 µM	68 µM	42.5 µM	> 100 µM	> 100 µM	29.8 µM	44.4 µM	44 µM
